Measurements taken from patent US9254293B2, “Methods and compositions for inhibiting or reducing hair loss, acne, rosacea, prostate cancer, and BPH” (The Trustees of the University of Pennsylvania, priority 2006, dated 2016).
Entries after “also recorded” stand apart in the source; their conditions may differ.

Test system: wild-type c57/black mice
Experiment: Topical application of PGD2 to the shaved central back of mice, effect on hair growth
Assay type: in vivo
Method: 25 day-old (corresponding to end of the first telogen stage) wild-type c57/black mice were treated with 200 ng of PGD2 (Cayman Chemicals) diluted in 200 μl of acetone applied to the central back after shaving. Subsequent treatments were performed every 3 days, ending on day 40 For a total of […]. Photographs were taken on day 46 of life, after the end of the 2nd anagen. In the second experiment, mice were shaved and treated with 10 μg of PGD2 dissolved in 200 μl of acetone on days 66 and 69 of life, and then photographed on day #121.

## CCCCC[C@H](O)/C=C/[C@H]1C(=O)C[C@H](O)[C@@H]1C/C=C\CCCC(=O)O [PGD2, prostaglandin D2]
25 day-old mice, 200 ng PGD2 in 200 μl acetone on central back after shaving, every 3 days to day 40 (5 applications), photographed day 46 after end of 2nd anagen
  effect of PGD2 on hair growth (alopecia): baldness (alopecia); also recorded: induced alopecia
Mice shaved, 10 μg PGD2 in 200 μl acetone on days 66 and 69 of life, photographed day 121, over 50 days after the last application
  effect of PGD2 on hair regrowth: prevent hair regrowth
